# Measured values from US9340590B2 (priority 2011, dated 2016).
# Like-named read-outs stand apart in the source and are kept apart here. Positions of bridges follow the written chain, without caps; N, C: chain ends. Non-standard residues stand in square brackets, D forms with d. Residues, ends and D or L forms follow the SMILES beside them. Phe(4-COOH) = N[C@@H](Cc1ccc(C(=O)O)cc1)C(=O)O; 2Pal = N[C@@H](Cc1ccccn1)C(=O)O
# Experiments:
# Assay in all cases: cell-based
# [1] = target: hNav1.7 (Homo sapiens, UniProt Q15858); format: cell-based; settings: IonWorks Quattro, use, […], read-out: IWQ Use Nav1.7
# [2] = target: hNav1.5 (Homo sapiens, UniProt Q14524); settings: IonWorks Quattro, use, […], read-out: IWQ Use Nav1.5
# [3] = target: hNav1.3 (Homo sapiens, UniProt Q9NY46); settings: IonWorks Quattro, use, […], read-out: IWQ Use Nav1.3
# hNav1.3, sequence (Q9NY46 whole entry, looked up): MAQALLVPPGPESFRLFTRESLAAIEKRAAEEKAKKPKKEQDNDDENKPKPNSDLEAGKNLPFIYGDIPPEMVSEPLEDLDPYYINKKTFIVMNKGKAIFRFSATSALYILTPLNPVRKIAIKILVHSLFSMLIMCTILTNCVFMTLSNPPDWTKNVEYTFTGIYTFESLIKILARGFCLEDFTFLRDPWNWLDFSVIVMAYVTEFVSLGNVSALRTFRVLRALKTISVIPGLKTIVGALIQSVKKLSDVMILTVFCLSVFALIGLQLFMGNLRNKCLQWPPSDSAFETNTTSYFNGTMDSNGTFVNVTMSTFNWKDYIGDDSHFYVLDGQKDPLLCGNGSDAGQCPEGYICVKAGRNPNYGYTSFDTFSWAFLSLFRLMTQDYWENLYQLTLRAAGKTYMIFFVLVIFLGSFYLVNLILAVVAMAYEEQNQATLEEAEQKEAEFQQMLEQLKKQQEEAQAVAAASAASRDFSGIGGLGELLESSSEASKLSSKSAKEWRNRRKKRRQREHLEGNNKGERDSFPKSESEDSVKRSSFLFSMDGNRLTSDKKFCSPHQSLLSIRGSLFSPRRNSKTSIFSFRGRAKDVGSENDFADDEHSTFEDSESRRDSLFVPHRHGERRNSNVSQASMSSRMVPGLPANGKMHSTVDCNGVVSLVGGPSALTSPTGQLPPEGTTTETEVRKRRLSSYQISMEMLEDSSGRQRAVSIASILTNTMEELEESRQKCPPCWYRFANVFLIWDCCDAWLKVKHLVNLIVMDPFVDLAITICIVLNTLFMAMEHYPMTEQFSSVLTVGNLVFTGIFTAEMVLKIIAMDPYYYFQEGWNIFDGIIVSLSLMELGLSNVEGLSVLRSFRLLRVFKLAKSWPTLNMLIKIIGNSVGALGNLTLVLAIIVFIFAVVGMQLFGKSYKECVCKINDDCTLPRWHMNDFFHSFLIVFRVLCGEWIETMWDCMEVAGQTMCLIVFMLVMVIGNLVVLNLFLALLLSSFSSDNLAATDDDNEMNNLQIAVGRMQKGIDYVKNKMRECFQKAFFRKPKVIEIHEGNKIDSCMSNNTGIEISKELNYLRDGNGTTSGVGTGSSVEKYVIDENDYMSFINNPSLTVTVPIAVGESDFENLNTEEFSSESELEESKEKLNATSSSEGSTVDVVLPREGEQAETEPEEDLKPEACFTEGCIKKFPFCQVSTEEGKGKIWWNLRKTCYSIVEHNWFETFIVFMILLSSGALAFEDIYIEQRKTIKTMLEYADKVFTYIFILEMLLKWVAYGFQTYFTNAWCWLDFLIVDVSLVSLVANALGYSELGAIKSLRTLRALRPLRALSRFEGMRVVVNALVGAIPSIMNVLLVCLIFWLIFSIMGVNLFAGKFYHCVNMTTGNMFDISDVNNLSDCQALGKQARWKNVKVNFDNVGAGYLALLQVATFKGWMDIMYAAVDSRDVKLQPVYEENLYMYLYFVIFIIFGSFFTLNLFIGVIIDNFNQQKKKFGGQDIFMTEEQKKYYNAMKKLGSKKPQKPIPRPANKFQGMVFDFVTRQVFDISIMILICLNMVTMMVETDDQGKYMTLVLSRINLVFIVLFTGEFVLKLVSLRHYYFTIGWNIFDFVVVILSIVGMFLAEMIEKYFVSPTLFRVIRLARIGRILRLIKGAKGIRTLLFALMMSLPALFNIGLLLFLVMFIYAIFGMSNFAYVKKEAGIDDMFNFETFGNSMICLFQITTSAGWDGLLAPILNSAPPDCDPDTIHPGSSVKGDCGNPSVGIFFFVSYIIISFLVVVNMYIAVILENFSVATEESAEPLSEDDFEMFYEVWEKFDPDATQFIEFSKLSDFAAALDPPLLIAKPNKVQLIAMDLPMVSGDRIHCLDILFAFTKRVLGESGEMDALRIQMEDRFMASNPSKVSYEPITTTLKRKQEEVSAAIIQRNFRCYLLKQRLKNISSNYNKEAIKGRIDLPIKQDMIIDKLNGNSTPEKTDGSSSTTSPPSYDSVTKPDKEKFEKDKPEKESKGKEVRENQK
# hNav1.5, sequence (Q14524 whole entry, looked up): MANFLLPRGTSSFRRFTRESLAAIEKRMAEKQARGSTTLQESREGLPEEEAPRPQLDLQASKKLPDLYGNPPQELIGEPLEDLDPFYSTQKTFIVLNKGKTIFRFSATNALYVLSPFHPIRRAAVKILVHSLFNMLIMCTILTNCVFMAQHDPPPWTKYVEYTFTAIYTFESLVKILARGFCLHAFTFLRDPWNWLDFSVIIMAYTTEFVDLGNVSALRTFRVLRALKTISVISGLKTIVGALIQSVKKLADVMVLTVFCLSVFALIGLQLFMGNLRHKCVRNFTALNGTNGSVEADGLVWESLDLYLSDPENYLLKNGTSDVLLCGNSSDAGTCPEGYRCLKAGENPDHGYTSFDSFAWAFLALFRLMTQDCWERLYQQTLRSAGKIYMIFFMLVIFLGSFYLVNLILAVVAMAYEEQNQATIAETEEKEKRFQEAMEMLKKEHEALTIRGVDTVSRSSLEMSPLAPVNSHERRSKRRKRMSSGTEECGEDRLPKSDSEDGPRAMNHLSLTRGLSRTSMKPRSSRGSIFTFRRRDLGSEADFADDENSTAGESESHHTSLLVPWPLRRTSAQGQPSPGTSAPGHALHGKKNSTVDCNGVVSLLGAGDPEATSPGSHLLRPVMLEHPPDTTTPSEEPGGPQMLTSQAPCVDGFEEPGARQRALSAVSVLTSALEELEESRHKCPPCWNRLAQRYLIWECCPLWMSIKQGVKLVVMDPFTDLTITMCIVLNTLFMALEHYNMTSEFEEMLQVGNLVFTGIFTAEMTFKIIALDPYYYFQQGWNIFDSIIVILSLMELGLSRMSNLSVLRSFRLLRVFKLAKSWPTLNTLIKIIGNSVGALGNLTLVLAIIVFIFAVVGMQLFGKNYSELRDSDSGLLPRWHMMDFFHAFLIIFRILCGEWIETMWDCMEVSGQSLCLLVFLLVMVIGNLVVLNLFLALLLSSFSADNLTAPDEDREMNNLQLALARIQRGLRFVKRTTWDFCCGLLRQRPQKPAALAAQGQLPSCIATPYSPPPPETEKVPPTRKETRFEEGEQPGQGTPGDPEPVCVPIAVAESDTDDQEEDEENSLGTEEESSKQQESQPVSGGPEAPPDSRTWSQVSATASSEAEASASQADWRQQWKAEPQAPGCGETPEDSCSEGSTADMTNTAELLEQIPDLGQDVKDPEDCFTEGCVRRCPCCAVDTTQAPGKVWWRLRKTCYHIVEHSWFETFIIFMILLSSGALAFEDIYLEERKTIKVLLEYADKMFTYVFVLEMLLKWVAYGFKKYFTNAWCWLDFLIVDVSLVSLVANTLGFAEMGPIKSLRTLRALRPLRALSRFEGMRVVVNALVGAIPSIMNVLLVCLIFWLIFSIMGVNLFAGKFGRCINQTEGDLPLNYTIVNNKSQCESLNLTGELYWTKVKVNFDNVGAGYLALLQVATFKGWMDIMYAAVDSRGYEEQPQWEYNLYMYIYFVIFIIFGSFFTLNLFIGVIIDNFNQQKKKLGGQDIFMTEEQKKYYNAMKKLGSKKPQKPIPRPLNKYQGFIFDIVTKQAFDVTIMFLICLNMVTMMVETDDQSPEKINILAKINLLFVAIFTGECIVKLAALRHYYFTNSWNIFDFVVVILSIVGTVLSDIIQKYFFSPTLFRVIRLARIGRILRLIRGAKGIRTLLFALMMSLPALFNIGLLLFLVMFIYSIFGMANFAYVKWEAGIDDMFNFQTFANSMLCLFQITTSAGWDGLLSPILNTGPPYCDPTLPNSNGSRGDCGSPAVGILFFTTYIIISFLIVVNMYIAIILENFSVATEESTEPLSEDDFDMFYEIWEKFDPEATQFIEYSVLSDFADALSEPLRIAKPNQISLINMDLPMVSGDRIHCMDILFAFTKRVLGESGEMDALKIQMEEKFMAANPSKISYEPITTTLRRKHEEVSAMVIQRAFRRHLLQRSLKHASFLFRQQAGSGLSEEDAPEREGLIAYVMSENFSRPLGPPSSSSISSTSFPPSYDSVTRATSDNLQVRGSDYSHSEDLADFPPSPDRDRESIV
compound,measurement,setting,value
"CC[C@H](C)[C@@H]1NC(=O)[C@@H]2CSSC[C@@H]3NC(=O)[C@H](C(C)C)NC(=O)[C@H](CC(C)C)NC(=O)[C@H](CC(N)=O)NC(=O)[C@@H]4CCCN4C(=O)[C@H](CCCNC(=N)N)NC(=O)[C@H](CSSC[C@H](NC(=O)[C@@H](N)CC(=O)O)C(=O)N[C@@H](CC(C)C)C(=O)NCC(=O)N[C@@H](Cc4ccccc4)C(=O)N[C@@H](CCSC)C(=O)N[C@@H](CCCNC(=N)N)C(=O)N[C@@H](CCCCN)C(=O)N2)NC(=O)[C@H](CSSC[C@@H](C(=O)N[C@@H](CCCCN)C(=O)N[C@@H](Cc2ccc(O)cc2)C(=O)N[C@H](C(=O)N[C@@H](Cc2ccccc2)C(N)=O)C(C)C)NC(=O)[C@H](Cc2c[nH]c4ccccc24)NC(=O)[C@H](CCCCN)NC(=O)[C@H](Cc2c[nH]cn2)NC(=O)[C@H](C(C)C)NC(=O)[C@H](CCCNC(=N)N)NC(=O)[C@H](CO)NC3=O)NC(=O)[C@H](CCCCN)NC(=O)[C@H](CC(=O)O)NC(=O)[C@H](CC(N)=O)NC(=O)[C@H](CC(=O)O)NC(=O)[C@@H]2CCCN2C1=O [compound 344] (H-DCLGFMRKCIPDNDKCCRPNLVCSRVHKWCKYVF-NH2; disulfide 2-17, 9-23, 16-30)",IC50,[1]; Table 22,60 nM
same,IC50,[2]; Table 22,8930 nM
same,IC50,[3]; Table 22,40 nM
"CC[C@H](C)[C@@H]1NC(=O)[C@@H]2CSSC[C@@H]3NC(=O)[C@H](C(C)C)NC(=O)[C@H](CC(C)C)NC(=O)[C@H](CC(N)=O)NC(=O)[C@@H]4CCCN4C(=O)[C@H](CCCNC(=N)N)NC(=O)[C@H](CSSC[C@H](NC(=O)[C@@H](N)CC(=O)O)C(=O)N[C@@H](CC(C)C)C(=O)NCC(=O)N[C@@H](Cc4ccccc4)C(=O)N[C@@H](CCSC)C(=O)N[C@@H](CCCNC(=N)N)C(=O)N[C@@H](CCCCN)C(=O)N2)NC(=O)[C@H](CSSC[C@@H](C(=O)N[C@@H](CCCCN)C(=O)N[C@@H](Cc2ccc(O)cc2)C(=O)N[C@H](C(=O)N[C@@H](Cc2ccccc2)C(N)=O)C(C)C)NC(=O)[C@H](Cc2c[nH]c4ccccc24)NC(=O)[C@H](CCCCN)NC(=O)[C@H](Cc2c[nH]cn2)NC(=O)[C@@H]2CCCN2C(=O)[C@H](CCCNC(=N)N)NC(=O)[C@H](CO)NC3=O)NC(=O)[C@H](CCCCN)NC(=O)[C@H](CC(=O)O)NC(=O)[C@H](CC(N)=O)NC(=O)[C@H](CC(=O)O)NC(=O)[C@@H]2CCCN2C1=O [compound 345] (H-DCLGFMRKCIPDNDKCCRPNLVCSRPHKWCKYVF-NH2; disulfide 2-17, 9-23, 16-30)",IC50,[1]; Table 22,180 nM
same,IC50,[2]; Table 22,6650 nM
same,IC50,[3]; Table 22,160 nM
"CC[C@H](C)[C@@H]1NC(=O)[C@@H]2CSSC[C@@H]3NC(=O)[C@H](C(C)C)NC(=O)[C@H](CC(C)C)NC(=O)[C@H](CC(N)=O)NC(=O)[C@@H]4CCCN4C(=O)[C@H](CCCNC(=N)N)NC(=O)[C@H](CSSC[C@H](NC(=O)[C@@H](N)CC(=O)O)C(=O)N[C@@H](CC(C)C)C(=O)NCC(=O)N[C@@H](Cc4ccccc4)C(=O)N[C@@H](CCSC)C(=O)N[C@@H](CCCNC(=N)N)C(=O)N[C@@H](CCCCN)C(=O)N2)NC(=O)[C@H](CSSC[C@@H](C(=O)N[C@@H](CCCCN)C(=O)N[C@@H](Cc2ccc(O)cc2)C(=O)N[C@H](C(=O)N[C@@H](Cc2ccccc2)C(N)=O)C(C)C)NC(=O)[C@H](Cc2c[nH]c4ccccc24)NC(=O)[C@H](CCCCN)NC(=O)[C@H](Cc2c[nH]cn2)NC(=O)[C@H](CCSC)NC(=O)[C@H](CCCNC(=N)N)NC(=O)[C@H](CO)NC3=O)NC(=O)[C@H](CCCCN)NC(=O)[C@H](CC(=O)O)NC(=O)[C@H](CC(N)=O)NC(=O)[C@H](CC(=O)O)NC(=O)[C@@H]2CCCN2C1=O [compound 346] (H-DCLGFMRKCIPDNDKCCRPNLVCSRMHKWCKYVF-NH2; disulfide 2-17, 9-23, 16-30)",IC50,[1]; Table 22,40 nM
same,IC50,[2]; Table 22,4240 nM
same,IC50,[3]; Table 22,20 nM
"CC[C@H](C)[C@@H]1NC(=O)[C@@H]2CSSC[C@@H]3NC(=O)[C@H](C(C)C)NC(=O)[C@H](CC(C)C)NC(=O)[C@H](CC(N)=O)NC(=O)[C@@H]4CCCN4C(=O)[C@H](CCCNC(=N)N)NC(=O)[C@H](CSSC[C@H](NC(=O)[C@@H](N)CC(=O)O)C(=O)N[C@@H](CC(C)C)C(=O)NCC(=O)N[C@@H](Cc4ccccc4)C(=O)N[C@@H](CCSC)C(=O)N[C@@H](CCCNC(=N)N)C(=O)N[C@@H](CCCCN)C(=O)N2)NC(=O)[C@H](CSSC[C@@H](C(=O)N[C@@H](CCCCN)C(=O)N[C@@H](Cc2ccc(O)cc2)C(=O)N[C@H](C(=O)N[C@@H](Cc2ccccc2)C(N)=O)C(C)C)NC(=O)[C@H](Cc2c[nH]c4ccccc24)NC(=O)[C@H](CCCCN)NC(=O)[C@H](Cc2c[nH]cn2)NC(=O)[C@H](CC(=O)O)NC(=O)[C@H](CCCNC(=N)N)NC(=O)[C@H](CO)NC3=O)NC(=O)[C@H](CCCCN)NC(=O)[C@H](CC(=O)O)NC(=O)[C@H](CC(N)=O)NC(=O)[C@H](CC(=O)O)NC(=O)[C@@H]2CCCN2C1=O [compound 347] (H-DCLGFMRKCIPDNDKCCRPNLVCSRDHKWCKYVF-NH2; disulfide 2-17, 9-23, 16-30)",IC50,[1]; Table 22,960 nM
same,IC50,[2]; Table 22,14100 nM
same,IC50,[3]; Table 22,640 nM
"CC[C@H](C)[C@@H]1NC(=O)[C@H](CCCNC(=N)N)NC(=O)[C@H](CO)NC(=O)[C@@H]2CSSC[C@@H]3NC(=O)[C@H](CCCCN)NC(=O)[C@H](CCCNC(=N)N)NC(=O)[C@H](CCSC)NC(=O)[C@H](Cc4ccccc4)NC(=O)CNC(=O)[C@H](CC(C)C)NC(=O)[C@@H](NC(=O)[C@@H](N)CC(=O)O)CSSC[C@H](NC(=O)[C@H](CSSC[C@@H](C(=O)N[C@@H](CCCCN)C(=O)N[C@@H](Cc4ccc(O)cc4)C(=O)N[C@H](C(=O)N[C@@H](Cc4ccccc4)C(N)=O)C(C)C)NC(=O)[C@H](Cc4c[nH]c5ccccc45)NC(=O)[C@H](CCCCN)NC(=O)[C@H](Cc4c[nH]cn4)NC1=O)NC(=O)[C@H](CCCCN)NC(=O)[C@H](CC(=O)O)NC(=O)[C@H](CC(N)=O)NC(=O)[C@H](CC(=O)O)NC(=O)[C@@H]1CCCN1C(=O)[C@H]([C@@H](C)CC)NC3=O)C(=O)N[C@@H](CCCNC(=N)N)C(=O)N1CCC[C@H]1C(=O)N[C@@H](CC(N)=O)C(=O)N[C@@H](CC(C)C)C(=O)N[C@@H](C(C)C)C(=O)N2 [compound 348] (H-DCLGFMRKCIPDNDKCCRPNLVCSRIHKWCKYVF-NH2; disulfide 2-17, 9-23, 16-30)",IC50,[1]; Table 22,50 nM
same,IC50,[2]; Table 22,8150 nM
same,IC50,[3]; Table 22,30 nM
"CC[C@H](C)[C@@H]1NC(=O)[C@@H]2CSSC[C@@H]3NC(=O)[C@H](C(C)C)NC(=O)[C@H](CC(C)C)NC(=O)[C@H](CC(N)=O)NC(=O)[C@@H]4CCCN4C(=O)[C@H](CCCNC(=N)N)NC(=O)[C@H](CSSC[C@H](NC(=O)[C@@H](N)CC(=O)O)C(=O)N[C@@H](CC(C)C)C(=O)NCC(=O)N[C@@H](Cc4ccccc4)C(=O)N[C@@H](CCSC)C(=O)N[C@@H](CCCNC(=N)N)C(=O)N[C@@H](CCCCN)C(=O)N2)NC(=O)[C@H](CSSC[C@@H](C(=O)N[C@@H](CCCCN)C(=O)N[C@@H](Cc2ccc(O)cc2)C(=O)N[C@H](C(=O)N[C@@H](Cc2ccccc2)C(N)=O)C(C)C)NC(=O)[C@H](Cc2c[nH]c4ccccc24)NC(=O)[C@H](CCCCN)NC(=O)[C@H](Cc2c[nH]cn2)NC(=O)[C@H](Cc2ccccn2)NC(=O)[C@H](CCCNC(=N)N)NC(=O)[C@H](CO)NC3=O)NC(=O)[C@H](CCCCN)NC(=O)[C@H](CC(=O)O)NC(=O)[C@H](CC(N)=O)NC(=O)[C@H](CC(=O)O)NC(=O)[C@@H]2CCCN2C1=O [compound 349] (H-DCLGFMRKCIPDNDKCCRPNLVCSR[2Pal]HKWCKYVF-NH2; disulfide 2-17, 9-23, 16-30)",IC50,[1]; Table 22,260 nM
same,IC50,[2]; Table 22,10600 nM
same,IC50,[3]; Table 22,60 nM
"CC[C@H](C)[C@@H]1NC(=O)[C@@H]2CSSC[C@@H]3NC(=O)[C@H](C(C)C)NC(=O)[C@H](CC(C)C)NC(=O)[C@H](CC(N)=O)NC(=O)[C@@H]4CCCN4C(=O)[C@H](CCCNC(=N)N)NC(=O)[C@H](CSSC[C@H](NC(=O)[C@@H](N)CC(=O)O)C(=O)N[C@@H](CC(C)C)C(=O)NCC(=O)N[C@@H](Cc4ccccc4)C(=O)N[C@@H](CCSC)C(=O)N[C@@H](CCCNC(=N)N)C(=O)N[C@@H](CCCCN)C(=O)N2)NC(=O)[C@H](CSSC[C@@H](C(=O)N[C@@H](CCCCN)C(=O)N[C@@H](Cc2ccc(O)cc2)C(=O)N[C@H](C(=O)N[C@@H](Cc2ccccc2)C(N)=O)C(C)C)NC(=O)[C@H](Cc2c[nH]c4ccccc24)NC(=O)[C@H](CCCCN)NC(=O)[C@H](Cc2c[nH]cn2)NC(=O)[C@H](Cc2ccc(C(=O)O)cc2)NC(=O)[C@H](CCCNC(=N)N)NC(=O)[C@H](CO)NC3=O)NC(=O)[C@H](CCCCN)NC(=O)[C@H](CC(=O)O)NC(=O)[C@H](CC(N)=O)NC(=O)[C@H](CC(=O)O)NC(=O)[C@@H]2CCCN2C1=O [compound 350] (H-DCLGFMRKCIPDNDKCCRPNLVCSR[Phe(4-COOH)]HKWCKYVF-NH2; disulfide 2-17, 9-23, 16-30)",IC50,[1]; Table 22,400 nM
same,IC50,[2]; Table 22,6460 nM
same,IC50,[3]; Table 22,2620 nM
"CC[C@H](C)[C@@H]1NC(=O)[C@@H]2CSSC[C@@H]3NC(=O)[C@H](C(C)C)NC(=O)[C@H](CC(C)C)NC(=O)[C@H](CC(N)=O)NC(=O)[C@@H]4CCCN4C(=O)[C@H](CCCNC(=N)N)NC(=O)[C@H](CSSC[C@H](NC(=O)[C@@H](N)CC(=O)O)C(=O)N[C@@H](CC(C)C)C(=O)NCC(=O)N[C@@H](Cc4ccccc4)C(=O)N[C@@H](CCSC)C(=O)N[C@@H](CCCNC(=N)N)C(=O)N[C@@H](CCCCN)C(=O)N2)NC(=O)[C@H](CSSC[C@@H](C(=O)N[C@@H](CCCCN)C(=O)N[C@@H](Cc2ccc(O)cc2)C(=O)N[C@H](C(=O)N[C@@H](Cc2ccccc2)C(N)=O)C(C)C)NC(=O)[C@H](Cc2c[nH]c4ccccc24)NC(=O)[C@H](CCCCN)NC(=O)[C@H](Cc2ccc(C(=O)O)cc2)NC(=O)[C@H]([C@@H](C)O)NC(=O)[C@H](CCCNC(=N)N)NC(=O)[C@H](CO)NC3=O)NC(=O)[C@H](CCCCN)NC(=O)[C@H](CC(=O)O)NC(=O)[C@H](CC(N)=O)NC(=O)[C@H](CC(=O)O)NC(=O)[C@@H]2CCCN2C1=O [compound 351] (H-DCLGFMRKCIPDNDKCCRPNLVCSRT[Phe(4-COOH)]KWCKYVF-NH2; disulfide 2-17, 9-23, 16-30)",IC50,[1]; Table 23,15400 nM
same,IC50,[2]; Table 23,6650 nM
same,IC50,[3]; Table 23,8410 nM
